Like-named read-outs stand apart in the source and are kept apart here.
Legend:
[1] = Cytotoxicity by the MTS method on uninfected cells; assay type: cell-based; settings: mouse, uninfected RAW 264.7 cells, Table 2, at least three independent experiments
Protocol: Cytotoxicity: The cytotoxicity of the Compounds was evaluated by the MTS method, by exposing uninfected cells to the same concentrations of compounds for 3 days. The %cell viability was calculated as (ODtreated/ODCC) × 100, where ODCC is the OD of uninfected untreated cells and ODtreated are uninfected cells treated with compound. The CC50 was defined as the compound concentration that reduces the number of viable cells by 50%[34].

MNV = MNV CPE reduction assay (MTS) in RAW 264.7 cells; assay type: cell-based, mouse norovirus (MNV-1.CW1); settings: Norovirus, RAW264.7, in Mus musculus, Table 2, RAW 264.7, range 0.6–100 µM, at least three independent experiments
Protocol: The newly prepared compounds 2–7 and 34–35 were evaluated for their antiviral effect against the genogroup V mouse norovirus (MNV) using the mouse macrophage cell line RAW264.7. This assay evaluates the ability of the compounds to protect infected cells from the virus-induced cytopathic effect, thus being suitable to identify inhibition of virus replication at every step of the virus life cycle, and representing a robust cellular assay available for the rapid evaluation of potential norovirus inhibitors. Compounds identified using MNV have shown effects against HuNoV in vitro and in vivo, as in the case of nucleoside RdRp inhibitor 2′-C-methylcytidine (2CMC)[34]–[36]. Unfortunately, despite not presenting the aqueous solubility issues we had previously encountered for 1[29], no significant antiviral effect could be observed in this assay for the new compounds up to the maximum concentration tested. The new structural modifications, despite retaining inhibition of the RdRp in an isolated enzyme activity assay and showing no cytotoxic effects at the test concentrations in the MNV antiviral assay (Supplementary Table S1), are correlated with a lack of antiviral activity. As these new structures present the same limitation of most non-nucleoside HuNoV polymerase inhibitors reported so far[22], we were prompted to apply a different computer-aided strategy to further modify the scaffold of 1, with the aim to achieve an antiviral effect in cellular systems. […]
Since the main scope of this work was to find new norovirus inhibitors which show antiviral effects against both the HuNoV RdRp and in norovirus-infected cells, priority was given to the evaluation of most of the new molecules for their antiviral activity against MNV in infected RAW cells. The nucleoside 2′-C-methylcytidine was used as positive control. The test compounds were evaluated at eight different concentrations (range 0.6–100 µM) and their ability to reduce the virus-induced cytopathic effect was assessed.
(§1) Cells and virus: MNV (virus strain MNV-1.CW1) was propagated in RAW 264.7 cells grown in DMEM (Life Technologies, Gent, Belgium) supplemented with 10% or 2% FBS, 2 mM L-glutamine, 20 mM HEPES, 0.075 g/L sodium bicarbonate, 1 mM sodium pyruvate, 100 U penicillin/mL and 100 µg/mL streptomycin at 37 °C in a humidified atmosphere of 5% CO2. The human norovirus GI.1 replicon harboring gastric tumor-1 cell line (HGT-NV) (kindly provided by Dr. Ian Goodfellow, University of Cambridge) was maintained in DMEM supplemented with 10% FBS, 2mM L-glutamine, 0.075 g/L sodium bicarbonate and 1.0 mg/ml of Geneticin (G418; Life Technologies), at 37 °C in a humidified atmosphere of 5% CO2[34].
Antiviral assay with MNV: The antiviral activity of the Compounds was determined using an MTS [3-(4,5-dimethylthiazol-2-yl)-5-(3-carboxymethoxyphenyl)-2-(4-sulfophenyl)-2H-tetrazolium]-based cytopathic effect (CPE) reduction assay. […] Then, a MTS-phenazinemethosulfate (MTS/PMS) stock solution [(2 mg/mL MTS (Promega, Leiden, The Netherlands) and 46 µg/mL PMS (Sigma–Aldrich, Bornem, Belgium) in PBS at pH 6–6.5)] was diluted 1/20 in MEM (Life Technologies, Gent, Belgium) and 75 µL were added to each well. After 2 h, the optical density (OD) was read at 498 nm. The %CPE reduction was calculated as [(ODtreated)MNV − ODVC]/[ODCC − ODVC] × 100, where ODCC represents the OD of the uninfected untreated cells, whereas ODVC and (ODtreated)MNV represent the OD of infected untreated cells and virus-infected cells treated with a compound concentration, respectively. The 50% effective concentration (EC50) was defined as the compound concentration that protected 50% of the cells from virus-induced CPE[34].

HuNoV (GII.4) RdRp [2] = target: HuNoV (GII.4) RdRp (Norovirus Hu/GII.4/Sydney/NSW0514/2012/AU, UniProt K4L8Z7); assay: Quantitative fluorescent RdRp activity assay (PicoGreen, poly(C) template); assay type: biochemical, human norovirus Sydney 2012
Protocol: The newly synthesised compounds, including the carboxylate ester derivatives 34–35 and 7 from the Core Hopping approach, were evaluated for their enzymatic inhibition of human norovirus Sydney 2012 (HuNoV (GII.4)) RdRp activity in vitro, using a quantitative fluorescent assay. Compounds were tested at six different concentrations (concentration range examined: 0.1–100 µM) and compared to the relative activity of mock treated samples containing the vehicle only (0.5% DMSO [vol/vol]). PPNDS [Pyridoxal-5′-phosphate-6-(2′-naphthylazo-6′-nitro-4′,8′-disulfonate) tetrasodium salt], a previously reported potent inhibitor of NoV RdRp activity, and 1 were used as positive controls. Dose-dependent inhibitory response curves were used to establish IC50 values for the eight test compounds, as reported in Table 1 (see also Supplementary Fig. S1).
The newly prepared compounds 48–60 were initially evaluated against norovirus Sydney 2012 RdRp activity in vitro using a quantitative fluorescent assay. Compounds were tested at a fixed concentration of 20 µM and compared to the relative activity of mock treated samples. PPNDS and 1 were used as positive controls. […] These two rings are structural features present in 1 and in one of its derivatives we have previously reported. […] From these observations, the thiophene ring appears not to influence inhibitory activity. Derivatives in which the central core of 48 has been used to link the two terminal hydrophobic rings of 1 or of its derivatives we have previously reported[25] (55, 57, 58) appear to retain the RdRp inhibitory activity found for 48 (~20% at 20 µM). A similar effect is obtained when a sulfonyl group, as in our hit 1, is used to link ring 2, regardless if it is a thiazole (59) or an unsubstituted phenyl ring (60), to the rest of the molecule. […] Overall, even if showing a reduced biochemical activity in comparison with 1, some of the new derivatives can be considered as modest HuNoV RdRp inhibitors at 20 µM.
(§2) Fluorescent RdRp activity assays were carried out as previously described[12],[29]. Briefly, RdRp activity was quantified by monitoring the formation of double-stranded RNA (dsRNA) from a single stranded homopolymeric template, poly(C) (Sigma Aldrich), using the fluorescent dye PicoGreen (Life Technologies, Carlsbad, CA, USA). RdRp assays were performed in 384-well plates, and each reaction mixture contained 400 ng enzyme, 45 μM GTP, 10 ng/μL poly(C) RNA, 2.5 mM MnCl2, 5 mM dithiothreitol, (DTT), 0.01% bovine serum albumin (BSA), and 0.005% Tween 20 in 20 mM Tris-HCl, pH 7.5, with a final reaction volume of 25 μL. The PPNDS and compound 1 were used as a positive controls. RdRps were incubated for 10 mins at 30 °C in the presence of the test compounds or the compound vehicle DMSO (0.5% vol/vol) before addition into the reaction mixture, which was then allowed to run 15 min at 30 °C then terminated with 10 mM EDTA, followed by PicoGreen staining and dsRNA quantitation. GraphPad Prism V6.05 (La Jolla, CA, USA) was used to plot the IC50 values. A secondary gel-based polymerase activity assay was used as a counter-screen as described below, to exclude the possibility of RdRp activity enhancement. Primed elongation activity was examined in a gel-based assay as previously described[12],[29] using the RNA template (PE44-NoV). Gels were imaged using BioRad (Hercules, CA, U.SA) Geldoc Universal Hood II, running BioRad Image Lab software, V4.1, build 16.

HuNoV GI.1 replicon = assay: HuNoV GI replicon assay (HGT-NV cells, qRT-PCR); assay type: cell-based, human norovirus GI.1
Protocol: Given that in this system the gene encoding for the major capsid protein is replaced by a neomycin resistance gene, no new virus particles will be produced but the non-structural proteins are expressed and the replication of the genomic RNA can be studied.
as §1
Antiviral assay with the HGT-NV replicon: The inhibitory effect of Compounds on human norovirus replication was assessed by quantification of the levels of HuNoV GI replicon RNA and of the reference (housekeeping) gene β-actin mRNA [by quantitative reverse transcription polymerase chain reaction (qRT-PCR)]. To this end, HGT cells (2000 cells/well) were seeded in 96-well plates, in complete DMEM without the selection marker G418. Following an incubation period of 24 h, a serial dilution of rupintrivir was added to the cultures. After 72 h of incubation, cell monolayers were washed with phosphate-buffered saline (PBS) and collected for quantification of RNA load by qRT-PCR. Intracellular RNA was extracted from cells using the cell-to-cDNA lysis buffer (Ambion, Life Technologies). For detection of HuNoV GI replicon RNA, forward (5′-CCG GCT ACC TGC CCA TTC-3′), reverse (5′-CCAGATCATCCTGATCGACAAG-3′) primers and probe (5′-FAM-ACATCGCATCGAGCGAGCACGTAC-TAMRA-3′) for the neomycin gene were used. For detection of β-actin mRNA, forward (5′-GGCATCCACGAAACTACCTT-3′), reverse (5′-AGCACTGTGTTGGCGTACAG-3′) primers and probe (5′-HEX-ATCATGAAGTGTGACGTGGACATCCG-BHQ1–3′) were used. One-step qRT-PCR was performed in a 20 µL reaction mixture containing 10 µl 2X iTaq Universal SYBR® Green one step reaction mix (Bio-rad, California, USA), 5.17 µl RNAse free water, 0.5 µl of iScript reverse transcriptase (Bio-rad, California, USA), 4 µl of the template RNA and either 300 nM of HuNoV GI replicon primers and probe, 300 nM of β-actin primers and 200 nM of probe. Cycling conditions were: reverse transcription at 50 °C for 10 min, initial denaturation at 95 °C for 3 min, followed by 40 cycles of denaturation at 95 °C for 15 s, annealing and extension at 60 °C for 30 seconds (Roche Lightcycler®96, Roche Diagnostics, Belgium). To determine the relative expression levels of HuNoV GI replicon RNA, β-actin was used as a normalizer and ratios were calculated using the Pfaffl method. The Expression Ratio (HuNoV GI Replicon/β-actin) was calculated as: Expression Ratio = (E HuNoV)^ΔCT, HuNoV (CC – TC)/(Eβ-actin)^ΔCT, β-actin (CC – TC), where E HuNoV and Eβ-actin represent the amplification efficiency (E = 10^–1/slope) for the HuNoV GI replicon and β-actin qRT-PCR reactions, respectively. ΔCT, HuNoV (CC – TC) is the Ct of untreated control cells (CC) minus the Ct of cells treated with a compound concentration (TC) obtained with HuNoV GI replicon primers and probe. ΔCT, β-actin (CC – TC) is the Ct of untreated control cells (CC) minus the Ct of cells treated with a compound concentration (TC) obtained with β-actin primers and probe. Efficiency values (E HuNoV and Eβ-actin) were determined for each qRT-PCR reaction.

HuNoV (GII.4) RdRp [3] = assay: Counter-screen gel-shift assay of primed elongation activity (PE44-NoV template); assay type: biochemical, human norovirus; settings: fixed concentration of 100 μM
Protocol: To further confirm RdRp inhibition and exclude any potential false positives from the first fluorescence RdRp assay, the eight molecules were then assessed using a gel-shift enzyme activity assay at a fixed concentration of 100 μM, following a procedure previously adopted by our research group.
Figure 5 A counter-screen gel-shift assay was used to confirm HuNoV (GII.4) RdRp inhibitory activity of compounds 2, 3, 34 and 35 (A), 4, 5, 6 (B) and 7 (C). The eight compounds were examined for inhibition of primed elongation activity. PE44-NoV RNA templates (32 nucleotides) were extended (44 nucleotides) by the RdRp in the absence of any test compounds (0.5% DMSO [vol/vol] negative control) or with test compounds at a fixed concentration of 100 μM. […] Full-length gels are presented in Supplementary Fig. S3.
as §2

[4] = Norwalk virus, HGT-1, 72 h, read-out: EC50 values (column head printed 'M'), HuNoV GI replicon in HGT-1 cells, replicon RNA by qRT-PCR

Row | SMILES | CC50 at 3 days [1] | EC50 (MNV) | EC50 (HuNoV GI.1 replicon; [4]) | other results
1 | Cc1ccc(C(=O)NC(=S)Nc2ccc(N3CCN(C(=O)c4ccccc4)CC3)cc2)cc1 [Compound 57, N-((4-(4-Benzoylpiperazin-1-yl)phenyl)carbamothioyl)-4-methylbenzamide] | > 100 µM | > 100 µM | – | inhibition at 20 µM (HuNoV (GII.4) RdRp [2]; 20 µM, read-out: inhibition of HuNoV RdRp activity at fixed concentration): ~20%
2 | O=C(NC(=S)Nc1ccc(N2CCN(S(=O)(=O)c3cccs3)CC2)cc1)c1ccccc1 [Compound 59, N-((4-(4-(Thiophen-2-ylsulfonyl)piperazin-1-yl)phenyl)carbamothioyl)benzamide] | > 100 µM | 43.8 ± 16.9 µM | 10 µM | EC50 values (column head printed 'M') (HuNoV GI.1 replicon; HuNoV GI replicon in HGT-1 cells, 72 h, replicon RNA by qRT-PCR): low micromolar range; EC50 (HuNoV GI.1 replicon; read-out: EC50 values (column head printed 'M'), HuNoV GI replicon in HGT-1 cells, 72 h, replicon RNA by qRT-PCR): 10.9 ± 11.1 µM
3 | Cc1nc(N=Nc2cc(S(=O)(=O)[O-])c3cc([N+](=O)[O-])cc(S(=O)(=O)[O-])c3c2)c(COP(=O)([O-])[O-])c(C=O)c1O.[Na+].[Na+].[Na+].[Na+] [PPNDS, Pyridoxal-5′-phosphate-6-(2′-naphthylazo-6′-nitro-4′,8′-disulfonate) tetrasodium salt, reference compound] | – | – | – | inhibition of primed elongation activity (gel-shift) (HuNoV (GII.4) RdRp [3]): complete inhibition; IC50 (HuNoV (GII.4) RdRp [2]; HuNoV (GII.4) RdRp activity, six concentrations 0.1–100 µM, mean ± SD): 1.5 ± 0.25 µM
4 | CCOC(=O)/C=C/[C@H](C[C@@H]1CCNC1=O)NC(=O)[C@@H](CC(=O)[C@@H](NC(=O)c1cc(C)on1)C(C)C)Cc1ccc(F)cc1 [Rupintrivir, reference compound] | – | – | 1.5 ± 0.4 µM | –
